Data reported in ChEMBL document CHEMBL1909046, “DrugMatrix in vitro pharmacology data”.

Legend:
[1] = molecular target: T1, 5-hydroxytryptamine receptor 1A (Rattus norvegicus, UniProt P19327); format: cell membranes, CHO-K1, Membrane; conditions: for Ki: read-out: Ki; as to all read-outs here: in other assays of this panel Not Active means under 50% inhibition at 10 µM
T1 sequence (P19327 whole entry): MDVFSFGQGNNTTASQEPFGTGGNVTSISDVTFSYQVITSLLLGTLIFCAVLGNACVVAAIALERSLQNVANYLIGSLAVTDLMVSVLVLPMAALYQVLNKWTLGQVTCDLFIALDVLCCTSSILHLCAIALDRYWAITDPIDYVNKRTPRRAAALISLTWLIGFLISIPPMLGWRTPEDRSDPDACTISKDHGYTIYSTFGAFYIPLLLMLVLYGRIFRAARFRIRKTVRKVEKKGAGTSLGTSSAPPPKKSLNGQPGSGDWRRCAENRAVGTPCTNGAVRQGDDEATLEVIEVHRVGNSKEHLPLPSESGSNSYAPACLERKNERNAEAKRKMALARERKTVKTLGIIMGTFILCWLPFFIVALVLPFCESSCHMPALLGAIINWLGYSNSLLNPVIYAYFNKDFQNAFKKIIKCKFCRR

[2] = molecular target: Beta-1 adrenergic receptor (Homo sapiens, UniProt P08588); experiment: DRUGMATRIX: Adrenergic beta1 radioligand binding (ligand: [125I] Cyanopindolol); format: cell membranes, CHO-K1, Membrane; conditions: cho-k1; Not Active = under 50% inhibition at 10 µM
Beta-1 adrenergic receptor, sequence (P08588 whole entry): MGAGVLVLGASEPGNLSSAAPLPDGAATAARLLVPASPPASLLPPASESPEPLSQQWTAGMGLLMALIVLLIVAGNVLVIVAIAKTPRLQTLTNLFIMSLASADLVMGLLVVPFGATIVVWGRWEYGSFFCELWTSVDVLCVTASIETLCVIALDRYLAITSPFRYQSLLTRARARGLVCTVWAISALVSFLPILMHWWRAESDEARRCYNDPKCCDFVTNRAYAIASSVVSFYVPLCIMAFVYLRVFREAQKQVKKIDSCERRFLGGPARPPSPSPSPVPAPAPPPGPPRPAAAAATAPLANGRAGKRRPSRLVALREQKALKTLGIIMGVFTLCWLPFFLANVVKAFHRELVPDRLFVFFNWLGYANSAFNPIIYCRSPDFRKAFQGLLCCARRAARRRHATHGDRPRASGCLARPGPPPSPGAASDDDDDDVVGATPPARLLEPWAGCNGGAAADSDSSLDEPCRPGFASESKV

D(4) dopamine receptor = molecular target: T2, D(4) dopamine receptor (Homo sapiens, UniProt P21917); experiment: DRUGMATRIX: Dopamine D4.2 radioligand binding (ligand: [3H] Spiperone); format: cell membranes, CHO-K1, Membrane; conditions: cho-k1; Not Active = under 50% inhibition at 10 µM
T2 sequence (P21917 whole entry): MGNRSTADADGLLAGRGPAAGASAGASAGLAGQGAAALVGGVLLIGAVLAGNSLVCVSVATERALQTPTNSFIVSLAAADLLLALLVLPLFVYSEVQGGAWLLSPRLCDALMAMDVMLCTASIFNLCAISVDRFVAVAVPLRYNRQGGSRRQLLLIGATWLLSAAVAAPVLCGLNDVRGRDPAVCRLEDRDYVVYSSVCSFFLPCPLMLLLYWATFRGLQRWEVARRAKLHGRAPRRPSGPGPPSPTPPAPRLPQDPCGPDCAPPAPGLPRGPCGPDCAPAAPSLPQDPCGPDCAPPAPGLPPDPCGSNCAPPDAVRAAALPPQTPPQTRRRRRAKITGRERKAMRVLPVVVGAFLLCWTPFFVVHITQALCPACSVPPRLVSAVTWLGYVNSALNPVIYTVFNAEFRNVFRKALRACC

[3] = DRUGMATRIX: Imidazoline I2, Central radioligand binding (ligand: [3H] Idazoxan); format: cell membranes, Rattus norvegicus, Wistar, Cerebral cortex, Membrane; conditions: Not Active = under 50% inhibition at 10 µM
Glucocorticoid receptor = molecular target: T3, Glucocorticoid receptor (Homo sapiens, UniProt P04150); conditions: hela s3; also: in other assays of this panel Not Active means under 50% inhibition at 10 µM
T3 sequence (P04150 whole entry): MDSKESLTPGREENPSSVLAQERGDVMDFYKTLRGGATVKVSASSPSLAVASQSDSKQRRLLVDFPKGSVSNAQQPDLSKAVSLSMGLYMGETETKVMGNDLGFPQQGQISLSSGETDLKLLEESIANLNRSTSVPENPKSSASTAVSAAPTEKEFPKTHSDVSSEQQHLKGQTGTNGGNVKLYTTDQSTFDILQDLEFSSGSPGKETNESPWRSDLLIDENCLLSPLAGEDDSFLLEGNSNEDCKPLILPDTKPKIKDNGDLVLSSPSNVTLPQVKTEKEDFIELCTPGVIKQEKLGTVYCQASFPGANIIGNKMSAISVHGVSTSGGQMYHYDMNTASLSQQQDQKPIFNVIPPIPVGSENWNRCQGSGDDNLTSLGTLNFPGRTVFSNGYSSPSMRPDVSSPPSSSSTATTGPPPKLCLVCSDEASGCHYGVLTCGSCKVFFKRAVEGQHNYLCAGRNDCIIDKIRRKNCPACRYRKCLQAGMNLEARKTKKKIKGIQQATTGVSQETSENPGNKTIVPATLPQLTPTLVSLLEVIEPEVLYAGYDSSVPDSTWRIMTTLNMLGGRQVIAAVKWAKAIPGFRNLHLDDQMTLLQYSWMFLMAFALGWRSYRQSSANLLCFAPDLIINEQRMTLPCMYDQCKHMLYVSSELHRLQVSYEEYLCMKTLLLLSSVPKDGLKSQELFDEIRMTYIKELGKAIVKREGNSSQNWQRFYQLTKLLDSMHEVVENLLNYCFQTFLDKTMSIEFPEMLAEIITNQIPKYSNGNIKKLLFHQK

B2 bradykinin receptor = molecular target: T4, B2 bradykinin receptor (Homo sapiens, UniProt P30411); format: cell membranes, Membrane; conditions: chem-1; also: in other assays of this panel Not Active means under 50% inhibition at 10 µM
T4 sequence (P30411 whole entry): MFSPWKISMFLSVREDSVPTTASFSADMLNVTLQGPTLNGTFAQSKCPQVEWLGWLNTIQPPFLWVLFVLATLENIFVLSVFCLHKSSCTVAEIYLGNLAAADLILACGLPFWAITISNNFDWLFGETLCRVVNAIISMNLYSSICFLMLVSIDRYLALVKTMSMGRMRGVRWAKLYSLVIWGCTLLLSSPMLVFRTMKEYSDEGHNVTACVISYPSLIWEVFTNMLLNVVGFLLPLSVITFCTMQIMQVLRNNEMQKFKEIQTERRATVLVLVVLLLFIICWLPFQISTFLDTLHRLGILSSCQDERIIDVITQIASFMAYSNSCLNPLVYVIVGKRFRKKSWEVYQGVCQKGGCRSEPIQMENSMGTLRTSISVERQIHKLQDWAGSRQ

Estrogen receptor beta = Estrogen receptor beta (Homo sapiens, UniProt Q92731); conditions: sf9; also: in other assays of this panel Not Active means under 50% inhibition at 10 µM
Estrogen receptor beta, sequence (Q92731 whole entry): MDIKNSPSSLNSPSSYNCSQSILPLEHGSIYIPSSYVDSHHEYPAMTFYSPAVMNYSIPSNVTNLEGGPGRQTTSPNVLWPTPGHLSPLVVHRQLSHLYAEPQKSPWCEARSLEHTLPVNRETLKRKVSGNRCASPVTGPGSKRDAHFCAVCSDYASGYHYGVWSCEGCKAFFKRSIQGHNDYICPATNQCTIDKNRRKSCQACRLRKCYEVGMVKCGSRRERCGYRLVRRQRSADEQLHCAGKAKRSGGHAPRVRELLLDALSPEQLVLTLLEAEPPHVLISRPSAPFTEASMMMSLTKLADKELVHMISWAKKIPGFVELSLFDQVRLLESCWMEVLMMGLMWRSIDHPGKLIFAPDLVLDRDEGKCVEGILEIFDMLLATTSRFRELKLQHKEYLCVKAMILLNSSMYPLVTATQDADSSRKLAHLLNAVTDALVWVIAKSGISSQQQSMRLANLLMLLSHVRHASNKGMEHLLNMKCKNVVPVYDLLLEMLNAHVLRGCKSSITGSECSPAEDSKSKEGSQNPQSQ

Structure (SMILES)	IC50 ([1]; cho-k1)	IC50 [2]	IC50 (D(4) dopamine receptor)	IC50 [3]	Ki [3]	IC50 (Glucocorticoid receptor)	IC50 (B2 bradykinin receptor)	IC50 (Estrogen receptor beta)	IC50 ([1]; read-out: IC50)	Ki [1]
CCCc1nn(C)c2c(=O)[nH]c(-c3cc(S(=O)(=O)N4CCN(C)CC4)ccc3OCC)nc12	Not Active	Not Active	Not Active	Not Active	Not Active	Not Active	Not Active			
CCOC(N)=O	Not Active	Not Active	Not Active	Not Active	Not Active		Not Active			
CC(=O)Nc1nnc(S(N)(=O)=O)s1 [ACETAZOLAMIDE]	Not Active	Not Active	Not Active			Not Active	Not Active	Not Active		
O=c1[nH]c2ccccc2n1CCCN1CCC(n2c(=O)[nH]c3cc(Cl)ccc32)CC1 [DOMPERIDONE]	Not Active	Not Active	Not Active			Not Active	Not Active	Not Active		
CC1=C(CC(=O)O)c2cc(F)ccc2/C1=C\c1ccc(S(C)(=O)=O)cc1 [EXISULIND]	Not Active	Not Active	Not Active	Not Active	Not Active		Not Active	Not Active		
CC(C)OC(=O)C(C)(C)Oc1ccc(C(=O)c2ccc(Cl)cc2)cc1 [FENOFIBRATE]	Not Active	Not Active	Not Active			Not Active	Not Active	Not Active		
CN1C2CCCC1CC(NC(=O)c1nn(C)c3ccccc13)C2 (stereo not drawn) [GRANISETRON]	Not Active	Not Active	Not Active				Not Active	Not Active		
CC[C@@H](CO)NC(=O)[C@@H]1C=C2c3cccc4c3c(cn4C)C[C@H]2N(C)C1 [METHYSERGIDE]			Not Active				Not Active	Not Active	54 nM	31 nM
O=P(O)(O)C(O)(Cc1cccnc1)P(=O)(O)O [RISEDRONIC ACID]	Not Active	Not Active	Not Active	Not Active	Not Active	Not Active	Not Active			
CN(CCOc1ccc(CC2SC(=O)NC2=O)cc1)c1ccccn1 (stereo not drawn) [ROSIGLITAZONE]	Not Active	Not Active	Not Active	Not Active	Not Active		Not Active	Not Active		
C=C(C)[C@H]1Cc2c(ccc3c2O[C@@H]2COc4cc(OC)c(OC)cc4[C@@H]2C3=O)O1 [ROTENONE]	Not Active	Not Active	Not Active	Not Active	Not Active	Not Active	Not Active			
CO[C@H]1C[C@@H]2CC[C@@H](C)[C@@](O)(O2)C(=O)C(=O)N2CCCC[C@H]2C(=O)O[C@H]([C@H](C)C[C@@H]2CC[C@@H](O)[C@H](OC)C2)CC(=O)[C@H](C)/C=C(\C)[C@@H](O)[C@@H](OC)C(=O)[C@H](C)C[C@H](C)/C=C/C=C/C=C/1C [SIROLIMUS]	Not Active	Not Active	Not Active	Not Active	Not Active		Not Active	Not Active		
CN[C@@H]1[C@H](O)[C@H](NC)[C@H]2O[C@@]3(O)C(=O)C[C@@H](C)O[C@H]3O[C@@H]2[C@H]1O [SPECTINOMYCIN]	Not Active	Not Active	Not Active	Not Active	Not Active	Not Active	Not Active			
Nc1ccc(S(=O)(=O)Nc2ncccn2)cc1 [SULFADIAZINE]	Not Active	Not Active	Not Active	Not Active	Not Active		Not Active	Not Active		
COc1ncnc(NS(=O)(=O)c2ccc(N)cc2)c1OC [SULFADOXINE]	Not Active	Not Active	Not Active	Not Active	Not Active		Not Active	Not Active		
Nc1ccc(S(=O)(=O)Nc2nccs2)cc1 [SULFATHIAZOLE]	Not Active	Not Active	Not Active	Not Active	Not Active	Not Active	Not Active			
C[C@]12CC[C@H]3[C@@H](CCC4=CC(=O)CC[C@@]43C)[C@@H]1CC[C@@H]2O [TESTOSTERONE]	Not Active	Not Active	Not Active	Not Active	Not Active		Not Active	Not Active		
CC(C)(C)NC[C@H](O)COc1nsnc1N1CCOCC1 [TIMOLOL]			Not Active	Not Active	Not Active	Not Active	Not Active		2710 nM	1550 nM
CCS(=O)(=O)CCn1c([N+](=O)[O-])cnc1C [TINIDAZOLE]	Not Active	Not Active	Not Active	Not Active	Not Active		Not Active			
NC[C@H]1O[C@H](O[C@H]2[C@H](O)[C@@H](O[C@H]3O[C@H](CO)[C@@H](O)[C@H](N)[C@H]3O)[C@H](N)C[C@@H]2N)[C@H](N)C[C@@H]1O [TOBRAMYCIN]	Not Active	Not Active	Not Active	Not Active	Not Active		Not Active	Not Active		
O=c1n(CCCN2CCN(c3cccc(Cl)c3)CC2)nc2ccccn12 [TRAZODONE]		Not Active	Not Active				Not Active			
O=C(O)C(Cl)(Cl)Cl [TRICHLOROACETIC ACID]	Not Active	Not Active	Not Active	Not Active	Not Active		Not Active			
CC(=O)O[C@H]1C[C@@H]2CC[C@@H]3[C@H](CC[C@@]4(C)[C@H]3C[C@H]([N+]3(C)CCCCC3)[C@@H]4OC(C)=O)[C@@]2(C)C[C@@H]1N1CCCCC1.[Br-] [VECURONIUM BROMIDE]	Not Active	Not Active	Not Active	Not Active	Not Active		Not Active			
Cc1cn([C@H]2C[C@H](N=[N+]=[N-])[C@@H](CO)O2)c(=O)[nH]c1=O [ZIDOVUDINE]	Not Active	Not Active	Not Active	Not Active	Not Active	Not Active	Not Active			
